The text below walks through data of patent publication US20140378378A1, “ERYTHROPOIETIN-DERIVED PEPTIDE AND USE THEREFOR” (priority 2011, published 2014).

One assay has as its system cardiomyocytes. Briefly: Cell survival of cardiomyocytes, MTT assay, 72 hours in PBS free of serum and nutrients, hypoxic condition. It counts as cell-based, Wister rat. Conditions: 0 nM = 100%. The procedure:
An 8 weeks old Wister rat was injected with ketamine and pentobarbital to quickly kill the […], and the heart was quickly separated from the mouse. An aorta was used to perfuse with Ca free Krebs-Henseleit buffer (KHB) solution, which was pre-heated to a temperature of about 34° C. to about 37° C., in heart direction. Thereafter, the KHB solution was switched to Hank's balanced salt solution (HBSS:GIBCO, Grand Island, N.Y.) containing 0.15% class II collagenase (Cooper Biomedical, Malvern, Pa.) and then perfused for about 30 to about 40 minutes. Thereafter, the product obtained therefrom was washed twice with a cell culture medium (Dulbecco's modified Eagle's medium, DMEM). Ventricles and atria were separated therefrom, ventricular tissues were thoroughly chopped and then stirred thoroughly for about 5 minutes in a shaker filled with cell culture medium (DMEM) containing class II collagenase that was pre-heated to a temperature of about 34° C. to about 37° C. Connective tissues that were not dissolved were filtered and a collagenase-containing solution was washed twice with the cell culture medium (DMEM). The product obtained therefrom was gently centrifuged at a speed of 10 g for 2 minutes, a supernatant obtained therefrom was separated and removed, and cell components were washed three times with a cell culture medium (DMEM) solution containing 1% fetal bovine serum (FBS; Sigma Chemical, St. Louis, Mo.). Thereafter, the cells obtained therefrom were stabilized in a cell culture medium (DMEM), 10% FBS, 10 mM N-2-hydroxyethylpiperazine-N′-2-ethanesulfonic acid (HEPES, GIBCO Laboratories, Grand Island, N.Y.), 2 mM L-glutamine, penicilin-stereptomycin (100 IU/mL, GIBCO) for 60 minutes.
Thereafter, the cells were divided in a 6-well plate at a density of 20×10^3 cells/cm^2 and then bromodeoxyuridine (BrdU, 10 uM, Sigma-Aldrich) was added to the cell culture medium over 3 days to prevent the proliferation of fibroblasts and progenitor cells (Lokuta et al, 1994; Miragoli et al., 2006). The cells were cultured in an incubator under conditions of 95% of O2, 5% of CO2, and a temperature of 37° C. for the next experiment.
Cells were seeded in a 96-well plate at a density of 2×10^4 cells/well and 200 ul for each well. In this regard, cell confluence was set at about 70% to about 80%. After 24 hours, when the cells have been stabilized, a 26 gauge or 28 gauge needle was used to remove a preexisting medium from the wells. 200 ul of PBS free of serum and nutrients was added to each well, the wells were divided into erythropoietin (EPO) treatment groups and MKX-2 treatment groups, which were further divided into experimental groups according to concentrations of 0 nM, 0.1 nM, 1 nM, 10 nM, 100 nM, and 1000 nM and then treated with a drug for 72 hours in a hypoxic condition, and then the cells were subjected to an MTT assay to compare cell survival rates. The EPO used was an Eporon injection (Dong-A Pharmaceuticals, Korea). All experimental groups for each concentration included 7 wells.
After a predetermined treatment time, 3-[4,5-dimethylthiazol-2-yl]-2,5-diphenyl tetrazolium bromide (MIT, Sigma, M2128) that was dissolved in a phosphate buffered saline (PBS) and then sterilization filtered by using a membrane filter having a thickness of 0.22 um was added to each well in an amount of 100 ul at a concentration of 1 mg/ml. In this regard, an MTT reagent was used after wrapping the MTT reagent with a foil sheet to block from light. […]

Assay [1] deals with cerebral infarction induced Sprague-Dawley rat models. Briefly: Cerebral infarction animal experiment: middle cerebral artery blockage/reperfusion, infarct volume by TTC dye. Conditions: 3000 IU/kg EPO injected right after reperfusion, measured after 24 hours. It counts as in vivo. An excerpt:
In the present experiment, Spague-Dawley (SD) rats weighing about 280 g to about 330 g were used, which were purchased from Koatech Inc. (Seoul, Korea). The number of rats used was 39, wherein 13 of them were used as a control group and another 26 were divided into 13 in a MKX-2 treatment group and 13 in an EPO treatment group.
To induce cerebral infarction, a method of temporarily blocking a left middle cerebral artery and then reperfusing the same was used, and an intraluminal filament technique, which was modified from the Koizumi method was used. Then, each SD rat was anesthetized with a mixture gas of 70% nitrous oxide and 30% oxygen along with isoflurane (3% for induction and 2% for surgical procedure). During the surgery, an excision was made slightly leftwards from the center of the neck and the left common carotid artery was carefully separated without damaging surrounding vagus nerves. […]
The cerebral infarction area was measured by an image analyzer with LeicaQwin program (Leica Microsystem Image Solution Ltd., Cambridge, England) and a volume (mm^3) was calculated as a sum of infarct volumes (=infarct area of a slice×thickness) of the slices, and then an average and a standard deviation were calculated for each experimental group. […]

“EPO: erythropoietin; the EPO used was an Eporon injection (Dong-A Pharmaceuticals, Korea)”: in the assay on cardiomyocytes (0.1 nM), the “cell survival rate compared with 0 nM” value is given as “not substantially different”. For the same substance, in the assay with cardiomyocytes (1 nM), the “cell survival rate compared with the initial condition” value is on record as “substantially decreased”. In addition, the cell survival rate was 94.52 ± 4.36% with cardiomyocytes (10 nM), 102.64 ± 2.69% with cardiomyocytes (100 nM) and 106.97 ± 1.99% in the assay on cardiomyocytes (1000 nM). The “volume of cerebral infarction” value in assay [1] is given as 246.27 ± 37.52 mm^3.
